In brackets after ≈: the same amount, converted by molar mass. Like-named read-outs stand apart in the source and are kept apart here.
What was measured:
[1] = system: C. neoformans var. grubii; test: microbe, parasite or virus in culture
Experimental: The MICs of the yeast strains for PMB, PME, and octapeptin C4 and its derivatives were determined in accordance with CLSI M27-A2 guidelines using YNB (Becton Dickinson, USA) medium supplemented with 10 mM ammonium sulfate and 2% glucose, a final inoculum concentration of 1.5 × 10^3 to 2.0 × 10^3 cells/ml, and incubation at 35°C for 72 h ([39]). […] The MICs for PMB, PME, and octapeptin C4 for A. fumigatus were determined in accordance with the CLSI M38-A2 guidelines ([40]) using synthetic RPMI 1640 medium (with glutamine, without bicarbonate and with phenol red; Life Technologies, USA). The final inoculum concentration was 0.4 × 10^4 to 5 × 10^4 cells/ml, with incubation at 35°C for 48 h. […] All assays were completed in triplicate. Fluconazole was used as a positive control where the MIC was determined at both 50% growth (in accordance with CLSI M27-A2 guidelines) and when there was a “no visible growth” reading. […]

[2] = system: C. neoformans var. gattii; test: microbe, parasite or virus in culture; settings: Cryptococcus neoformans
Experimental: The MICs of the yeast strains for PMB, PME, and octapeptin C4 and its derivatives were determined in accordance with CLSI M27-A2 guidelines using YNB (Becton Dickinson, USA) medium supplemented with 10 mM ammonium sulfate and 2% glucose, a final inoculum concentration of 1.5 × 10^3 to 2.0 × 10^3 cells/ml, and incubation at 35°C for 72 h ([39]). […] The MICs for PMB, PME, and octapeptin C4 for A. fumigatus were determined in accordance with the CLSI M38-A2 guidelines ([40]) using synthetic RPMI 1640 medium (with glutamine, without bicarbonate and with phenol red; Life Technologies, USA). The final inoculum concentration was 0.4 × 10^4 to 5 × 10^4 cells/ml, with incubation at 35°C for 48 h. […] All assays were completed in triplicate. Fluconazole was used as a positive control where the MIC was determined at both 50% growth (in accordance with CLSI M27-A2 guidelines) and when there was a “no visible growth” reading.

SMILES: OC(Cn1cncn1)(Cn1cncn1)c1ccc(F)cc1F [Fluconazole, fluconazole]
- MIC ([1]; Cryptococcus neoformans, read-out: MIC-2, strain 486 (USA), 50% fungal growth): 12.5 µg/mL (≈ 40.8 µM)
- MIC ([1]; Cryptococcus neoformans, read-out: MIC-2, strain 488 (AIDS+, pre-HAART USA), 50% fungal growth): 12.5 µg/mL (≈ 40.8 µM)
- MIC ([1]; Cryptococcus neoformans, read-out: MIC-2, strain 490 (USA), 50% fungal growth): 6.25 µg/mL (≈ 20.4 µM)
- MIC ([1]; Cryptococcus neoformans, read-out: MIC-2, strain 496 (USA), 50% fungal growth): 6.25 µg/mL (≈ 20.4 µM)
- MIC ([1]; Cryptococcus neoformans, read-out: MIC-2, strain 500 (USA), 50% fungal growth): 6.5 µg/mL (≈ 21.2 µM)
- MIC ([1]; Cryptococcus neoformans, read-out: MIC-2, strain 502 (ARR3+ USA), 50% fungal growth): 6.5 µg/mL (≈ 21.2 µM)
- MIC ([1]; Cryptococcus neoformans, read-out: MIC-2, strain 505 (India), 50% fungal growth): 6.25 µg/mL (≈ 20.4 µM)
- MIC ([1]; Cryptococcus neoformans, read-out: MIC-2, strain 507 (India), 50% fungal growth): 6.25 µg/mL (≈ 20.4 µM)
- MIC ([1]; Cryptococcus neoformans, read-out: MIC-2, strain 510 (VNII India), 50% fungal growth): 1.56 µg/mL (≈ 5.09 µM)
- MIC ([1]; Cryptococcus neoformans, read-out: MIC-2, strain 512 (India), 50% fungal growth): 6.25 µg/mL (≈ 20.4 µM)
- MIC ([1]; Cryptococcus neoformans, read-out: MIC-2, strain 516 (India), 50% fungal growth): 6.25 µg/mL (≈ 20.4 µM)
- MIC ([1]; Cryptococcus neoformans, read-out: MIC-2, strain 518 (VNI India), 50% fungal growth): 6.25 µg/mL (≈ 20.4 µM)
- MIC ([1]; Cryptococcus neoformans, read-out: MIC-2, strain 522 (India), 50% fungal growth): 6.25 µg/mL (≈ 20.4 µM)
- MIC ([1]; Cryptococcus neoformans, read-out: MIC-2, strain 525 (India), 50% fungal growth): 12.5 µg/mL (≈ 40.8 µM)
- MIC ([1]; Cryptococcus neoformans, read-out: MIC-2, strain 1188 (Japan lung), 50% fungal growth): 3.13 µg/mL (≈ 10.2 µM)
- MIC ([1]; Cryptococcus neoformans, read-out: MIC-2, strain 1194 (Italy), 50% fungal growth): 1.56 µg/mL (≈ 5.09 µM)
- MIC ([1]; Cryptococcus neoformans, read-out: MIC-2, strain 1196 (Botswana CSF/AIDS), 50% fungal growth): 12.5 µg/mL (≈ 40.8 µM)
- MIC ([1]; Cryptococcus neoformans, read-out: MIC-2, strain 1197 (Botswana CSF/AIDS), 50% fungal growth): 3.13 µg/mL (≈ 10.2 µM)
- MIC ([1]; Cryptococcus neoformans, read-out: MIC-2, strain 1199 (Uganda CSF/HIV+ VNII), 50% fungal growth): 3.13 µg/mL (≈ 10.2 µM)
- MIC ([1]; Cryptococcus neoformans, read-out: MIC-2, strain H99O (lab strain), 50% fungal growth): 6.25 µg/mL (≈ 20.4 µM)
- MIC ([1]; Cryptococcus neoformans, read-out: MIC-2, strain H99 XL (lab strain), 50% fungal growth): 3.13 µg/mL (≈ 10.2 µM)
- MIC ([1]; Cryptococcus neoformans, read-out: MIC-2, strain H99 stud (lab strain), 50% fungal growth): 3.13 µg/mL (≈ 10.2 µM)
- MIC ([1]; Cryptococcus neoformans, strain 486 (USA), no visible growth): 25 µg/mL (≈ 81.6 µM)
- MIC ([1]; Cryptococcus neoformans, strain 488 (AIDS+, pre-HAART USA), no visible growth): 25 µg/mL (≈ 81.6 µM)
- MIC ([1]; Cryptococcus neoformans, strain 490 (USA), no visible growth): 12.5 µg/mL (≈ 40.8 µM)
- MIC ([1]; Cryptococcus neoformans, strain 496 (USA), no visible growth): 12.5 µg/mL (≈ 40.8 µM)
- MIC ([1]; Cryptococcus neoformans, strain 500 (USA), no visible growth): 12.5 µg/mL (≈ 40.8 µM)
- MIC ([1]; Cryptococcus neoformans, strain 502 (ARR3+ USA), no visible growth): 12.5 µg/mL (≈ 40.8 µM)
- MIC ([1]; Cryptococcus neoformans, strain 505 (India), no visible growth): 6.25 µg/mL (≈ 20.4 µM)
- MIC ([1]; Cryptococcus neoformans, strain 507 (India), no visible growth): 12.5 µg/mL (≈ 40.8 µM)
- MIC ([1]; Cryptococcus neoformans, strain 510 (VNII India), no visible growth): 3.13 µg/mL (≈ 10.2 µM)
- MIC ([1]; Cryptococcus neoformans, strain 512 (India), no visible growth): 12.5 µg/mL (≈ 40.8 µM)
- MIC ([1]; Cryptococcus neoformans, strain 516 (India), no visible growth): 12.5 µg/mL (≈ 40.8 µM)
- MIC ([1]; Cryptococcus neoformans, strain 518 (VNI India), no visible growth): 12.5 µg/mL (≈ 40.8 µM)
- MIC ([1]; Cryptococcus neoformans, strain 522 (India), no visible growth): 12.5 µg/mL (≈ 40.8 µM)
- MIC ([1]; Cryptococcus neoformans, strain 525 (India), no visible growth): 25 µg/mL (≈ 81.6 µM)
- MIC ([1]; Cryptococcus neoformans, strain 1188 (Japan lung), no visible growth): 12.5 µg/mL (≈ 40.8 µM)
- MIC ([1]; Cryptococcus neoformans, strain 1194 (Italy), no visible growth): 6.25 µg/mL (≈ 20.4 µM)
- MIC ([1]; Cryptococcus neoformans, strain 1196 (Botswana CSF/AIDS), no visible growth): 25 µg/mL (≈ 81.6 µM)
- MIC ([1]; Cryptococcus neoformans, strain 1197 (Botswana CSF/AIDS), no visible growth): 12.5 µg/mL (≈ 40.8 µM)
- MIC ([1]; Cryptococcus neoformans, strain 1199 (Uganda CSF/HIV+ VNII), no visible growth): 12.5 µg/mL (≈ 40.8 µM)
- MIC ([1]; Cryptococcus neoformans, strain H99O (lab strain), no visible growth): 12.5 µg/mL (≈ 40.8 µM)
- MIC ([1]; Cryptococcus neoformans, strain H99 XL (lab strain), no visible growth): 6.25 µg/mL (≈ 20.4 µM)
- MIC ([1]; Cryptococcus neoformans, strain H99 stud (lab strain), no visible growth): 6.25 µg/mL (≈ 20.4 µM)
- MIC ([1]; read-out: MIC-2, strain 1189 (USA BAL/HIV), 50% fungal growth): 12.5 µg/mL (≈ 40.8 µM)
- MIC ([1]; strain 1189 (USA BAL/HIV), no visible growth): 25 µg/mL (≈ 81.6 µM)
- MIC ([2]; ATCC24066, read-out: MIC-2, strain ATCC 24066 (NIH 18), 50% fungal growth): 1.56 µg/mL (≈ 5.09 µM)
- MIC ([2]; ATCC24066, strain ATCC 24066 (NIH 18), no visible growth): 3.13 µg/mL (≈ 10.2 µM)
- MIC ([2]; ATCC32269, read-out: MIC-2, strain ATCC 32269, 50% fungal growth): 0.78 µg/mL (≈ 2.55 µM)
- MIC ([2]; ATCC32269, strain ATCC 32269, no visible growth): 1.56 µg/mL (≈ 5.09 µM)
- MIC ([2]; ATCC32608, read-out: MIC-2, strain ATCC 32608 (NIH 191), 50% fungal growth): 0.39 µg/mL (≈ 1.27 µM)
- MIC ([2]; ATCC32608, strain ATCC 32608 (NIH 191), no visible growth): 0.78 µg/mL (≈ 2.55 µM)
- MIC ([2]; ATCC32609, read-out: MIC-2, strain ATCC 32609 (NIH444), 50% fungal growth): 3.13 µg/mL (≈ 10.2 µM)
- MIC ([2]; ATCC32609, strain ATCC 32609 (NIH444), no visible growth): 6.25 µg/mL (≈ 20.4 µM)
- MIC ([2]; ATCC34878, read-out: MIC-2, strain ATCC 34878, 50% fungal growth): 3.13 µg/mL (≈ 10.2 µM)
- MIC ([2]; ATCC34878, strain ATCC 34878, no visible growth): 6.25 µg/mL (≈ 20.4 µM)
- MIC ([2]; ATCC34882, read-out: MIC-2, strain ATCC 34882, 50% fungal growth): 1.56 µg/mL (≈ 5.09 µM)
